# Target: T1, 11β-HSD1 (Homo sapiens, UniProt P28845)
# T1 construct: detecting cortisol generated from cortisterone by human liver microsomes; from tissue; host or cells: human liver microsomes
# Assay: In vitro inhibition of 11β-HSD1, HTRF detection of cortisol generated by human liver microsomes
# Type: biochemical
# Details: compound concentration 1 μM, 100% indicates no inhibition, zero or below zero indicates complete inhibition, cortisone 80 nM, 1 hour at 37° C., read-out: % CTL at 1 μM
# Description: Briefly, compounds were incubated for 1 hour at 37° C. in Tris buffer (20 mM tris, 5 mM EDTA, pH 6.0) containing NADPH (200 μM) and cortisone (80 nM). Cortisol generated in the reaction is then detected with a competitive immunoassay, involving two HTRF conjugates: cortisol linked to XL665 and anti-cortisol antibody labeled with Europium cryptate. The incubation period for detection reaction was typically 2 hours. The amount of cortisol is determined by reading the time-resolved fluorescence of the wells (Ex 320/75 nm; Em 615/8.5 nm and 665/7.5 nm). The ratio of the two emission signals is then calculated (Em665*10000/Em615). […] Each assay also contained a calibration curve with cortisol to transform the fluorescent data into cortisol concentrations. Percent inhibition of each compound was determined relative to the carbenoxolone signal and IC50 curves were generated.
# The % CTL values of some example compounds at a concentration of 1 μM are provided in the following Table 2 wherein 100% indicates no inhibition and a value of zero or below zero indicates complete inhibition. The measurement of % CTL is described hereinbefore.
# T1 sequence (P28845 whole entry): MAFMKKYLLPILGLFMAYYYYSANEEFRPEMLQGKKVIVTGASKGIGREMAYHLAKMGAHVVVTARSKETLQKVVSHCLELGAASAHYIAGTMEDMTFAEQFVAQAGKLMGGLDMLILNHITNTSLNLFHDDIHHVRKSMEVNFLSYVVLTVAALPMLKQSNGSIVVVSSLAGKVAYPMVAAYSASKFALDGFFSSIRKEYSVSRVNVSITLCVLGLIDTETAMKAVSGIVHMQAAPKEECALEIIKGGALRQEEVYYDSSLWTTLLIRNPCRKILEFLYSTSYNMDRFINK
smiles,measurement,value
"CC1(C)[C@H]2Cc3c(O)cccc3[C@]1(C)CCN2C(=O)N1CCCCC1 [Example 1, [(2R,6S)-10-Hydroxy-6,11,11-trimethyl-1,2,5,6-tetrahydro-4H-2,6-methano-benzo[d]azocin-3-yl]-piperidin-1-yl-methanone]",remaining activity at 1 µM,-46%
CC1(C)[C@H]2Cc3c(O)cccc3[C@]1(C)CCN2C(=O)N1CCCC1 [Example 2],remaining activity at 1 µM,18%
CC1(C)[C@H]2Cc3c(O)cccc3[C@]1(C)CCN2C(=O)N1CCOCC1 [Example 3],remaining activity at 1 µM,84%
"CC1(C)[C@H]2Cc3c(O)cccc3[C@]1(C)CCN2C(=O)N1CCc2ccsc2C1 [Example 7, (4,7-Dihydro-5H-thieno[2,3-c]pyridin-6-yl)-[(2R,6S)-10-hydroxy-6,11,11-trimethyl-1,2,5,6-tetrahydro-4H-2,6-methano-benzo[d]azocin-3-yl]-methanone]",remaining activity at 1 µM,-32%
CC1(C)[C@H]2Cc3c(O)cccc3[C@]1(C)CCN2C(=O)N1CCc2sccc2C1 [Example 8],remaining activity at 1 µM,-27%
CC1CCN(C(=O)N2CC[C@@]3(C)c4cccc(O)c4C[C@@H]2C3(C)C)CC1 [Example 9],remaining activity at 1 µM,-14%
CC1(C)[C@H]2Cc3c(O)cccc3[C@]1(C)CCN2C(=O)N1Cc2ccccc2C1 [Example 10],remaining activity at 1 µM,53%
CC1(C)[C@H]2Cc3c(O)cccc3[C@]1(C)CCN2C(=O)N1CCc2ccccc2C1 [Example 11],remaining activity at 1 µM,18%
COC1CCN(C(=O)N2CC[C@@]3(C)c4cccc(O)c4C[C@@H]2C3(C)C)CC1 [Example 12],remaining activity at 1 µM,-39%
CC1(C)[C@H]2Cc3c(O)cccc3[C@]1(C)CCN2C(=O)N1CCC(O)CC1 [Example 13],remaining activity at 1 µM,-53%
CC1(C)[C@H]2Cc3c(O)cccc3[C@]1(C)CCN2C(=O)N1C2CCC1CC(O)C2 (stereo partly shown) [Example 14],remaining activity at 1 µM,-46%
CC1(C)[C@H]2Cc3c(O)cccc3[C@]1(C)CCN2C(=O)N1CCc2nc[nH]c2C1 [Example 15],remaining activity at 1 µM,14%
CC1(C)[C@H]2Cc3c(O)cccc3[C@]1(C)CCN2C(=O)N1CCCc2ccccc21 [Example 16],remaining activity at 1 µM,-41%
CC1(C)[C@H]2Cc3c(O)cccc3[C@]1(C)CCN2C(=O)N1[C@@H]2CC[C@H]1C[C@@H](c1ccc(F)cc1)C2 [Example 17],remaining activity at 1 µM,-43%
CC1(C)[C@H]2Cc3c(O)cccc3[C@]1(C)CCN2C(=O)N1CCc2ccccc21 [Example 18],remaining activity at 1 µM,-8%
CC1(C)[C@H]2Cc3ccccc3[C@]1(C)CCN2C(=O)N1CCCCC1 [Example 19],remaining activity at 1 µM,-47%
C[C@@H]1[C@H]2Cc3ccc(O)cc3[C@]1(C)CCN2C(=O)N1CCCCC1 [Example 20],remaining activity at 1 µM,-39%
C[C@@H]1[C@H]2Cc3ccc(C#N)cc3[C@]1(C)CCN2C(=O)N1CCCCC1 [Example 21],remaining activity at 1 µM,-28%
CC1(C)[C@H]2Cc3c(O)cccc3[C@]1(C)CCN2C(=O)N1CCC(CO)C1 (stereo partly shown) [Example 22],remaining activity at 1 µM,-4%
CC1(C)[C@H]2Cc3c(O)cccc3[C@]1(C)CCN2C(=O)N1CCCC(O)C1 (stereo partly shown) [Example 23],remaining activity at 1 µM,-9%
CC1(C)[C@H]2Cc3c(O)cccc3[C@]1(C)CCN2C(=O)N1CC(O)C1 [Example 24],remaining activity at 1 µM,70%
CC1(C)[C@H]2Cc3c(O)cccc3[C@]1(C)CCN2C(=O)N1CCC(CO)CC1 [Example 25],remaining activity at 1 µM,-43%
CC1(C)[C@H]2Cc3c(O)cccc3[C@]1(C)CCN2C(=O)N1CCCC(O)CC1 (stereo partly shown) [Example 26],remaining activity at 1 µM,-41%
CC1(O)CCN(C(=O)N2CC[C@@]3(C)c4cccc(O)c4C[C@@H]2C3(C)C)CC1 [Example 27],remaining activity at 1 µM,-41%
CC1(C)[C@H]2Cc3c(O)cccc3[C@]1(C)CCN2C(=O)N1CCCC1CO (stereo partly shown) [Example 28],remaining activity at 1 µM,36%
CC1(C)[C@H]2Cc3c(O)cccc3[C@]1(C)CCN2C(=O)N1CCC(O)C1 (stereo partly shown) [Example 29],remaining activity at 1 µM,30%
CC1(C)[C@H]2Cc3c(O)cccc3[C@]1(C)CCN2C(=O)N1CCCC(CO)C1 (stereo partly shown) [Example 30],remaining activity at 1 µM,-54%
"COc1cccc2c1C[C@H]1N(C(=O)N3CCCCC3)CC[C@]2(C)C1(C)C [Example 31, [(2R,6S)-10-Methoxy-6,11,11-trimethyl-1,2,5,6-tetrahydro-4H-2,6-methano-benzo[d]azocin-3-yl]-piperidin-1-yl-methanone]",remaining activity at 1 µM,-6%
CC1(C)[C@H]2Cc3c(OCc4ccccc4)cccc3[C@]1(C)CCN2C(=O)N1CCCCC1 [Example 32],remaining activity at 1 µM,82%
CC1(C)[C@H]2Cc3c(OCC#N)cccc3[C@]1(C)CCN2C(=O)N1CCCCC1 [Example 33],remaining activity at 1 µM,23%
"CC1(C)[C@H]2Cc3c(ccc(C#N)c3O)[C@]1(C)CCN2C(=O)N1CCCCC1 [Example 35, (2R,6S)-10-Hydroxy-6,11,11-trimethyl-3-(piperidine-1-carbonyl)-1,2,3,4,5,6-hexahydro-2,6-methano-benzo[d]azocine-9-carbonitrile]",remaining activity at 1 µM,-30%
"CC1(C)[C@H]2Cc3cc(C#N)ccc3[C@]1(C)CCN2C(=O)N1CCCCC1 [Example 36, (2R,6S)-6,11,11-Trimethyl-3-(piperidine-1-carbonyl)-1,2,3,4,5,6-hexahydro-2,6-methano-benzo[d]azocine-9-carbonitrile]",remaining activity at 1 µM,-31%
CC1(C)[C@H]2Cc3c(O)cccc3[C@]1(C)CCN2C(=O)N1CCC(O)(CO)CC1 [Example 37],remaining activity at 1 µM,-7%
CC1(C)[C@H]2Cc3c(O)cccc3[C@]1(C)CCN2C(=O)N1C2CCCC1CC(O)C2 (stereo partly shown) [Example 40],remaining activity at 1 µM,-17%
CC1(C)[C@H]2Cc3c(O)cccc3[C@]1(C)CCN2C(=O)N1CCCC(C(N)=O)C1 (stereo partly shown) [Example 41],remaining activity at 1 µM,-56%
CC1(C)[C@H]2Cc3c(O)cccc3[C@]1(C)CCN2C(=O)N1CCCC(C(=O)Nc2ccccc2)C1 (stereo partly shown) [Example 42],remaining activity at 1 µM,32%
CC1(C)[C@H]2Cc3c(O)cccc3[C@]1(C)CCN2C(=O)N1CCCC2(CCCNC2=O)C1 (stereo partly shown) [Example 43],remaining activity at 1 µM,-45%
CC1(C)[C@H]2Cc3c(O)cccc3[C@]1(C)CCN2C(=O)N1CCc2cc(O)ccc2C1 [Example 44],remaining activity at 1 µM,-4%
"CC1(C)[C@H]2Cc3c(O)cccc3[C@]1(C)CCN2C(=O)N1CCc2cccc(O)c2C1 [Example 46, (8-Hydroxy-3,4-dihydro-1H-isoquinolin-2-yl)-[(2R,6S)-10-hydroxy-6,11,11-trimethyl-1,2,5,6-tetrahydro-4H-2,6-methano-benzo[d]azocin-3-yl]-methanone]",remaining activity at 1 µM,-10%
CC1(C)[C@H]2Cc3c(O)cccc3[C@]1(C)CCN2C(=O)N1CCn2cnnc2C1 [Example 47],remaining activity at 1 µM,94%
Cc1ccc2c(c1)CCCN2C(=O)N1CC[C@@]2(C)c3cccc(O)c3C[C@@H]1C2(C)C [Example 48],remaining activity at 1 µM,-18%
CC1(C)[C@H]2Cc3c(O)cccc3[C@]1(C)CCN2C(=O)N1CCCc2cc(NC(=O)C(F)(F)F)ccc21 [Example 49],remaining activity at 1 µM,23%
CC1(C)[C@H]2Cc3c(O)cccc3[C@]1(C)CCN2C(=O)N1CCC(C(N)=O)CC1 [Example 50],remaining activity at 1 µM,-20%
CC(C)(C)C1COc2ccccc2N1C(=O)N1CC[C@@]2(C)c3cccc(O)c3C[C@@H]1C2(C)C (stereo partly shown) [Example 51],remaining activity at 1 µM,94%
CC1(C)[C@H]2Cc3c(O)cccc3[C@]1(C)CCN2C(=O)N1CCCC(c2nc3ccccc3[nH]2)C1 (stereo partly shown) [Example 52],remaining activity at 1 µM,27%
CC1(C)[C@H]2Cc3c(O)cccc3[C@]1(C)CCN2C(=O)N1CCc2cc(O)ccc21 [Example 53],remaining activity at 1 µM,7%
CC1(O)CCN(C(=O)N2CC[C@@]3(C)c4ccccc4C[C@@H]2C3(C)C)CC1 [Example 54],remaining activity at 1 µM,-25%
CC1(C)[C@H]2Cc3c(O)cccc3[C@]1(C)CCN2C(=O)N1CCCC2(CCNC2=O)C1 (stereo partly shown) [Example 55],remaining activity at 1 µM,-31%
CC1(C)[C@H]2Cc3c(O)cccc3[C@]1(C)CCN2C(=O)N1CCc2ccc(O)cc2C1 [Example 58],remaining activity at 1 µM,-37%
CC1(C)[C@H]2Cc3c(O)cccc3[C@]1(C)CCN2C(=O)N1CCCC(c2nnn[nH]2)C1 (stereo partly shown) [Example 59],remaining activity at 1 µM,70%
CC1(C)[C@H]2Cc3ccccc3[C@]1(C)CCN2C(=O)N1CCCC2(CCCNC2=O)C1 (stereo partly shown) [Example 60],remaining activity at 1 µM,-19%
CC1(C)[C@H]2Cc3ccccc3[C@]1(C)CCN2C(=O)N1CCC(c2ccccc2)C1 (stereo partly shown) [Example 61],remaining activity at 1 µM,7%
CCOC(=O)[C@H]1CCCN(C(=O)N2CC[C@@]3(C)c4ccccc4C[C@@H]2C3(C)C)C1 [Example 62],remaining activity at 1 µM,13%
CCOC(=O)C1CCCN(C(=O)N2CC[C@@]3(C)c4ccccc4C[C@@H]2C3(C)C)C1 (stereo partly shown) [Example 63],remaining activity at 1 µM,47%
CC1(C)[C@H]2Cc3ccccc3[C@]1(C)CCN2C(=O)N1CCC[C@H](CO)C1 [Example 64],remaining activity at 1 µM,-33%
CC(C)(O)C1CCN(C(=O)N2CC[C@@]3(C)c4ccccc4C[C@@H]2C3(C)C)CC1 [Example 65],remaining activity at 1 µM,2%
"CC(C)(O)[C@@H]1CCCN(C(=O)N2CC[C@@]3(C)c4ccccc4C[C@@H]2C3(C)C)C1 [Example 66, [(R)-3-(1-Hydroxy-1-methyl-ethyl)-piperidin-1-yl]-[(2R,6S)-6,11,11-trimethyl-1,2,5,6-tetrahydro-4H-2,6-methano-benzo[d]azocin-3-yl]-methanone]",remaining activity at 1 µM,-16%
CC1(C)[C@H]2Cc3ccccc3[C@]1(C)CCN2C(=O)N1CCOC[C@H]1c1ccccc1 [Example 67],remaining activity at 1 µM,71%

# — patent US20110028445A1, “Urea derivatives of benzomorphanes and related scaffolds, medicaments containing such compounds and their use” (BOEHRINGER INGELHEIM INTERNATIONAL GMBH, priority 2008, published 2011)
